ChEMBL document CHEMBL3885881, “DrugMatrix”

Species: Rattus norvegicus
Experiment: DrugMatrix - Regimen: Daily Repeat
Assay type: toxicity, organism-based, Sprague-Dawley
Set-up: regimen Daily Repeat, gender Male, age 6-8 weeks
Conditions: in vivo, po, route oral GAVAGE, […]; for ABSOLUTE BASOPHIL / ABSOLUTE EOSINOPHIL / ABSOLUTE LYMPHOCYTE / ABSOLUTE MONOCYTE / ABSOLUTE SEGMENTED NEUTROPHIL / BASOPHIL / EOSINOPHIL / ERYTHROCYTE COUNT / HEMATOCRIT / HEMOGLOBIN / LEUKOCYTE COUNT / LYMPHOCYTE / MEAN CORPUSCULAR HEMOGLOBIN / MEAN CORPUSCULAR HEMOGLOBIN CONCENTRATION / MEAN CORPUSCULAR VOLUME / MONOCYTE / NEUTROPHIL / NUCLEATED RED BLOOD CELLS / PLATELET COUNT: tissue Blood; for ALANINE AMINOTRANSFERASE / ALBUMIN / ALKALINE PHOSPHATASE / ASPARTATE AMINOTRANSFERASE / BLOOD UREA NITROGEN / CARBON DIOXIDE / CHLORIDE / CHOLESTEROL / CREATINE PHOSPHOKINASE / CREATININE / GLUCOSE / LACTATE DEHYDROGENASE / LIPASE / PHOSPHORUS / POTASSIUM / SODIUM / TOTAL BILIRUBIN / TOTAL PROTEIN / URIC ACID: tissue Plasma
[1] = 0 mg/kg, 72 h, dose level Control, time 3 day
[2] = 0 mg/kg, 120 h, dose level Control, time 5 day
[3] = 0 mg/kg, dose level Control, time 28 day
[4] = 56 mg/kg, 72 h, dose level Low, time 3 day

NC[C@@H]1O[C@H](O[C@H]2[C@@H](O)[C@H](O[C@@H]3[C@@H](O)[C@H](N)C[C@H](N)[C@H]3O[C@H]3O[C@H](CN)[C@@H](O)[C@H](O)[C@H]3N)O[C@@H]2CO)[C@H](N)[C@@H](O)[C@@H]1O [FRAMYCETIN]
ABSOLUTE BASOPHIL [1]: 0 CELLS/uL
ABSOLUTE EOSINOPHIL [1]: 33 CELLS/uL
ABSOLUTE LYMPHOCYTE [1]: 9048.5 CELLS/uL
ABSOLUTE MONOCYTE [1]: 80.17 CELLS/uL
ABSOLUTE SEGMENTED NEUTROPHIL [1]: 1521.67 CELLS/uL
BASOPHIL [1]: 0%
EOSINOPHIL [1]: 0.17%
ERYTHROCYTE COUNT [1]: 5.46 x10E6/uL
HEMATOCRIT [1]: 32.87%
HEMOGLOBIN [1]: 12.95 G/DL
LEUKOCYTE COUNT [1]: 10.68 x10E3/uL
LYMPHOCYTE [1]: 86.67%
MEAN CORPUSCULAR HEMOGLOBIN [1]: 23.72 pg
MEAN CORPUSCULAR HEMOGLOBIN CONCENTRATION [1]: 39.4 G/DL
MEAN CORPUSCULAR VOLUME [1]: 60.18 fL
MONOCYTE [1]: 0.83%
NEUTROPHIL [1]: 12.33%
NUCLEATED RED BLOOD CELLS [1]: 0 /100WBC
PLATELET COUNT [1]: 1211.33 x10E3/uL
ALANINE AMINOTRANSFERASE [1]: 76.67 u/L
ALBUMIN [1]: 3.93 G/DL
ALKALINE PHOSPHATASE [1]: 317.17 u/L
ASPARTATE AMINOTRANSFERASE [1]: 81.17 u/L
BLOOD UREA NITROGEN [1]: 12.33 mg/dL
CARBON DIOXIDE [1]: 31.17 mmol/L
CHLORIDE [1]: 98.33 MEQ/L
CHOLESTEROL [1]: 67.17 mg/dL
CREATINE PHOSPHOKINASE [1]: 312.33 u/L
CREATININE [1]: 0.19 mg/dL
GLUCOSE [1]: 165.5 mg/dL
LACTATE DEHYDROGENASE [1]: 94.5 u/L
LIPASE [1]: 9.83 u/L
PHOSPHORUS [1]: 10.1 mg/dL
POTASSIUM [1]: 5.16 MEQ/L
SODIUM [1]: 143.02 MEQ/L
TOTAL BILIRUBIN [1]: 0.2 mg/dL
TOTAL PROTEIN [1]: 5.88 G/DL
URIC ACID [1]: 0.68 mg/dL
ABSOLUTE BASOPHIL [2]: 0 CELLS/uL
ABSOLUTE EOSINOPHIL [2]: 14.67 CELLS/uL
ABSOLUTE LYMPHOCYTE [2]: 9629.83 CELLS/uL
ABSOLUTE MONOCYTE [2]: 72.5 CELLS/uL
ABSOLUTE SEGMENTED NEUTROPHIL [2]: 1049.67 CELLS/uL
NUCLEATED RED BLOOD CELLS [2]: 0.17 /100WBC
CARBON DIOXIDE [2]: 26.4 mmol/L
LACTATE DEHYDROGENASE [2]: 83.5 u/L
LIPASE [2]: 85.83 u/L
URIC ACID [2]: 0.8 mg/dL
BASOPHIL [3]: 0.42%
EOSINOPHIL [3]: 0.58%
ERYTHROCYTE COUNT [3]: 8.06 x10E6/uL
HEMATOCRIT [3]: 48.44%
HEMOGLOBIN [3]: 16.34 G/DL
LEUKOCYTE COUNT [3]: 13.04 x10E3/uL
LYMPHOCYTE [3]: 85.12%
MEAN CORPUSCULAR HEMOGLOBIN [3]: 20.26 pg
MEAN CORPUSCULAR HEMOGLOBIN CONCENTRATION [3]: 33.74 G/DL
MEAN CORPUSCULAR VOLUME [3]: 60.1 fL
MONOCYTE [3]: 1.44%
NEUTROPHIL [3]: 11.28%
PLATELET COUNT [3]: 1226 x10E3/uL
ALANINE AMINOTRANSFERASE [3]: 28.6 u/L
ALBUMIN [3]: 3.94 G/DL
ALKALINE PHOSPHATASE [3]: 254.6 u/L
ASPARTATE AMINOTRANSFERASE [3]: 67.8 u/L
BLOOD UREA NITROGEN [3]: 10.4 mg/dL
CHLORIDE [3]: 104.6 MEQ/L
CHOLESTEROL [3]: 57.6 mg/dL
CREATINE PHOSPHOKINASE [3]: 224.8 u/L
CREATININE [3]: 0.4 mg/dL
GLUCOSE [3]: 140.6 mg/dL
PHOSPHORUS [3]: 10.66 mg/dL
POTASSIUM [3]: 6.58 MEQ/L
SODIUM [3]: 148.6 MEQ/L
TOTAL BILIRUBIN [3]: 0.24 mg/dL
TOTAL PROTEIN [3]: 6.64 G/DL
ABSOLUTE BASOPHIL [4]: 0 CELLS/uL
ABSOLUTE EOSINOPHIL [4]: 0 CELLS/uL
ABSOLUTE LYMPHOCYTE [4]: 8427.33 CELLS/uL
ABSOLUTE MONOCYTE [4]: 92.67 CELLS/uL
ABSOLUTE SEGMENTED NEUTROPHIL [4]: 980 CELLS/uL
BASOPHIL [4]: 0%
EOSINOPHIL [4]: 0%
ERYTHROCYTE COUNT [4]: 5.46 x10E6/uL
HEMATOCRIT [4]: 33.8%
HEMOGLOBIN [4]: 13.4 G/DL
LEUKOCYTE COUNT [4]: 9.5 x10E3/uL
LYMPHOCYTE [4]: 88.67%
MEAN CORPUSCULAR HEMOGLOBIN [4]: 24.57 pg
MEAN CORPUSCULAR HEMOGLOBIN CONCENTRATION [4]: 39.63 G/DL
MEAN CORPUSCULAR VOLUME [4]: 61.9 fL
MONOCYTE [4]: 1%
NEUTROPHIL [4]: 10.33%
NUCLEATED RED BLOOD CELLS [4]: 0 /100WBC
PLATELET COUNT [4]: 1108.33 x10E3/uL
ALANINE AMINOTRANSFERASE [4]: 81 u/L
ALBUMIN [4]: 4.1 G/DL
ALKALINE PHOSPHATASE [4]: 367.33 u/L
ASPARTATE AMINOTRANSFERASE [4]: 87 u/L
BLOOD UREA NITROGEN [4]: 11.67 mg/dL
CARBON DIOXIDE [4]: 33.33 mmol/L
CHLORIDE [4]: 97 MEQ/L
CHOLESTEROL [4]: 89.67 mg/dL
CREATINE PHOSPHOKINASE [4]: 277.67 u/L
